Patent US12624034B2, “Non-covalent modifiers of AKT1 and uses thereof” (Terremoto Biosciences, Inc., priority 2023, dated 2026)
Like-named read-outs stand apart in the source and are kept apart here.

Tests used:
AKT1 WT = target: T1, AKT1 WT (Homo sapiens, UniProt P31749); assay: Live cell AKT1 WT target engagement by NanoBRET competitive probe displacement in HEK293 cells; format: binding; settings: 2 h at 37° C., read-out: AKT1 WT IC50
T1 construct: expressed in transfected cells; host or cells: HEK293

AKT2 = target: T2, AKT2 (Homo sapiens, UniProt P31751); assay: Live cell AKT2 target engagement by NanoBRET competitive probe displacement in HEK293 cells; format: binding; settings: 2 h at 37° C., read-out: AKT2 IC50
T2 construct: expressed in transfected cells; host or cells: HEK293

[1] = NanoBRET competitive probe displacement, live HEK293 cells
[2] = NanoBRET live cell target engagement, HEK293 cells

T1 sequence (P31749 whole entry): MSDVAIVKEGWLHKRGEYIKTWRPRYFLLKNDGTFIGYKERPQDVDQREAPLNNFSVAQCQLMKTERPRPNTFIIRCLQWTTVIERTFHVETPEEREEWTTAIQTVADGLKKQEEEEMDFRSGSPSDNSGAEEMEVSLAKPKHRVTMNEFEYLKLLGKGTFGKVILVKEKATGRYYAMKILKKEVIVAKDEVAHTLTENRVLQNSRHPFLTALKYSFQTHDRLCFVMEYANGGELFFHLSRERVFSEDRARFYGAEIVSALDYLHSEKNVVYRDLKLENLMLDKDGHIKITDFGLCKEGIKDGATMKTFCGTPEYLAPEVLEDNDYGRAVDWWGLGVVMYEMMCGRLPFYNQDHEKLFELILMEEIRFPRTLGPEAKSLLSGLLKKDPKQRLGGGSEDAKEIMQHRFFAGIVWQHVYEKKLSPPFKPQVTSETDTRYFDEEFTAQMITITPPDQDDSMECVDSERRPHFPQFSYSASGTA
T2 sequence (P31751 whole entry): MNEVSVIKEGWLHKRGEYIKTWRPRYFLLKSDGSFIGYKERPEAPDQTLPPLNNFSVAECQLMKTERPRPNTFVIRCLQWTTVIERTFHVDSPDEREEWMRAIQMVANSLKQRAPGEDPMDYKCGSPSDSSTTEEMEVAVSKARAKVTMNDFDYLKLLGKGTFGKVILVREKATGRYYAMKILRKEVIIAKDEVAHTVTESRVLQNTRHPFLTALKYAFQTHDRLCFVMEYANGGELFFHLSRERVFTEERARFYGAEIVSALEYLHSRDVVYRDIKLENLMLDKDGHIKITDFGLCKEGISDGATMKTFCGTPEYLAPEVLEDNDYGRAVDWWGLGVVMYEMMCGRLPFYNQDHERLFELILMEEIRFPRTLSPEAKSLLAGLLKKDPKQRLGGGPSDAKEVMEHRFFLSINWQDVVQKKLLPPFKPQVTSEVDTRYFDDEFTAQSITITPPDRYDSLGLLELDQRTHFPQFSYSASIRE

Row | IC50 (AKT1 WT; [1]) [µM] | IC50 (AKT2; [1]) [µM] | IC50 (AKT1 WT; [2]) [µM] | IC50 (AKT2; [2]) [µM] | Compound
1 | 0.028 | 3.77 |  |  | Nc1ncccc1-c1nc2ccc(C#C[C@H]3CCO3)nc2n1-c1ccc2c(c1)CC[C@@H]2NC(=O)c1ccc(C(F)F)nc1 [Compound 453]
2 | 0.0264 | 0.686 |  |  | CCC#Cc1ccc2nc(-c3cccnc3N)n(-c3ccc4c(c3)CC[C@@H]4NC(=O)c3ccc(C(F)F)nc3)c2n1 [Compound 412]
3 |  |  | 0.00494 | 0.0348 | Nc1ncccc1-c1nc2ccc(-c3ccn(C(F)F)n3)nc2n1-c1ccc2c(c1)CC[C@@H]2NC(=O)c1ccc(C(F)F)nc1 [Compound 74]
4 |  |  | 0.0124 | 0.0489 | CS(=O)(=O)Nc1ccc(C(=O)N[C@H]2CCc3cc(-n4c(-c5cccnc5N)nc5ccc(-n6cccn6)nc54)ccc32)cc1 [Compound 195]
5 |  |  | 0.0494 | 0.576 | Cc1ccc(CN[C@H]2CCc3cc(-n4c(-c5cccnc5N)nc5ccc(-n6cccn6)nc54)ccc32)cn1 [Compound 70]
6 |  |  | > 1 | > 10 | Nc1ncccc1-c1nc2ccc(-n3cccn3)nc2n1-c1ccc2c(c1)CC[C@@H]2NC(=O)[C@H]1CCO1 [Compound 372]
7 |  |  | 0.00895 | 0.015 | Nc1ncccc1-c1nc2ccc(-n3cccn3)nc2n1-c1ccc2c(c1)CC[C@@H]2NC(=O)c1cnc2c(c1)CCC2(F)F [Compound 66]
8 | 0.027 | 0.764 |  |  | Nc1ncccc1-c1nc2ccc(-n3ncc(C4CC4)n3)nc2n1-c1ccc2c(c1)CC[C@@H]2NC(=O)c1cnc(C(F)F)s1 [Compound 588]
9 |  |  | 0.178 | 4.5 | Nc1ncccc1-c1nc2ccc(-n3cccn3)nc2n1-c1ccc2c(c1)CC[C@@H]2NC1COC1 [Compound 111]
10 |  |  | 0.504 | 3.87 | CS(=O)(=O)Nc1ccc(C(=O)N[C@H]2CCc3cc(-n4c(-c5cccnc5N)nc5ccc(-n6cccn6)nc54)ccc32)cn1 [Compound 231]
11 |  |  | 0.00639 | 0.036 | Nc1ncccc1-c1nc2ccc(-n3cccn3)nc2n1-c1ccc2c(c1)CC[C@@H]2NC(=O)c1cnc2c(c1)COC2 [Compound 106]
12 |  |  | 0.00903 | 0.0498 | Cc1ccc(C(=O)N[C@H]2CCc3cc(-n4c(-c5cccnc5N)nc5ccc(-c6ccn(C(F)F)n6)nc54)ccc32)cn1 [Compound 73]
13 |  |  | 0.0582 | 2.6 | COc1cncc(C(=O)N[C@H]2CCc3cc(-n4c(-c5cccnc5N)nc5ccc(-n6cccn6)nc54)ccc32)n1 [Compound 348]
14 | 0.00143 | 0.034 |  |  | Cc1cc(C(=O)N[C@H]2CCc3cc(-n4c(-c5cccnc5N)nc5ccc(-n6cccn6)nc54)ccc32)cc(C(F)(F)F)c1O [Compound 416]
15 | 0.0165 | 1.44 |  |  | Cc1cc(C(F)F)ncc1C(=O)N[C@H]1CCc2cc(-n3c(-c4cccnc4N)nc4ccc(-n5nccn5)nc43)ccc21 [Compound 397]
16 | 0.0261 | 0.562 |  |  | CN(C)C(=O)c1cc(C(=O)N[C@H]2CCc3cc(-n4c(-c5cccnc5N)nc5ccc(-n6cccn6)nc54)ccc32)ccc1O [Compound 414]
17 | 0.019 | 0.028 |  |  | Nc1ncccc1-c1nc2ccc(-n3cccn3)nc2n1-c1ccc2c(c1)CC[C@@H]2NC1CCc2cnccc21 (stereo partly drawn) [Compound 473]
18 | 0.0192 | 0.167 |  |  | Nc1ncccc1-c1nc2ccc(-n3cccn3)nc2n1-c1ccc2c(c1)CC[C@@H]2NC1CCc2cnccc2C1 (stereo partly drawn) [Compound 464]
19 |  |  | 0.00532 | 0.103 | Cc1ncncc1C(=O)N[C@H]1CCc2cc(-n3c(-c4cccnc4N)nc4ccc(-n5cccn5)nc43)ccc21 [Compound 117]
20 |  |  | 0.0112 | 0.109 | C#Cc1cc(C(=O)N[C@H]2CCc3cc(-n4c(-c5cccnc5N)nc5ccc(-n6cccn6)nc54)ccc32)ccn1 [Compound 105]
21 |  |  | 0.0116 | 0.1 | Nc1ncccc1-c1nc2c(F)cc(-n3cccn3)nc2n1-c1ccc2c(c1)CC[C@@H]2NC(=O)c1ccc(C(F)F)nc1 [Compound 165, (S)—N-(5-(2-(2-aminopyridin-3-yl)-7-fluoro-5-(1H-pyrazol-1-yl)-3H-imidazo[4,5-b]pyridin-3-yl)-2,3-dihydro-1H-inden-1-yl)-6-(difluoromethyl)nicotinamide]
22 |  |  | 0.0831 | 1.11 | Cc1ncccc1C(=O)N[C@H]1CCc2cc(-n3c(-c4cccnc4N)nc4ccc(N5CCOCC5)nc43)ccc21 [Compound 135]
23 |  |  | 0.0105 | 0.0704 | Cc1ccc(C(=O)N[C@H]2CCc3cc(-n4c(-c5cccnc5N)nc5ccc(-c6ncc(C)s6)nc54)ccc32)cn1 [Compound 314]

Row | IC50 (AKT1 WT; [1]) [µM] | IC50 (AKT2; [1]) [µM] | IC50 (AKT1 WT; [2]) [µM] | IC50 (AKT2; [2]) [µM] | Compound
24 |  |  | 0.00927 | 0.0665 | Nc1ncccc1-c1nc2ccc(-n3cccn3)nc2n1-c1ccc2c(c1)CC[C@@H]2NC(=O)c1ccnc(OC2CC2)c1 [Compound 201]
25 | 0.19 | 3.53 |  |  | Nc1ncccc1-c1nc2ccc(-n3cccn3)nc2n1-c1ccc2c(c1)CC[C@@H]2NC1CCN(C(=O)C2CC2(F)F)CC1 (stereo partly drawn) [Compound 433]
26 |  |  | 0.117 | 1.09 | CNS(=O)(=O)c1cccc(C(=O)N[C@H]2CCc3cc(-n4c(-c5cccnc5N)nc5ccc(-n6cccn6)nc54)ccc32)c1 [Compound 239]
27 | 0.134 | 2.09 |  |  | Nc1ncccc1-c1nc2ccc(-n3cccn3)nc2n1-c1ccc2c(c1)CC[C@@H]2NC1CCCc2ccncc21 (stereo partly drawn) [Compound 502]
28 |  |  | 0.0237 | 0.824 | Nc1ncccc1-c1nc2ccc(-n3ccc(F)n3)nc2n1-c1ccc2c(c1)CC[C@@H]2NC(=O)c1ccc(F)c(F)c1 [Compound 347]
29 | 0.00814 | 0.198 |  |  | Cc1cnsc1C(=O)N[C@H]1CCc2cc(-n3c(-c4cccnc4N)nc4ccc(-n5cccn5)nc43)ccc21 [Compound 451]
30 | 0.976 | > 10 |  |  | CN1CC(C#Cc2ccc3nc(-c4cccnc4N)n(-c4ccc5c(c4)CC[C@@H]5NC(=O)c4ccc(C(F)F)nc4)c3n2)C1 [Compound 411, (S)—N-(5-(2-(2-aminopyridin-3-yl)-5-((1-methylazetidin-3-yl)ethynyl)-3H-imidazo[4,5-b]pyridin-3-yl)-2,3-dihydro-1H-inden-1-yl)-6-(difluoromethyl)nicotinamide]
31 | 0.0815 | > 10 |  |  | Nc1ncccc1-c1nc2ccc(-n3cccn3)nc2n1-c1ccc2c(c1)CC[C@H]2NC1CCN(C(=O)C2CC2)CC1 [Compound 500]
32 | 0.0241 | 2.12 |  |  | Cc1ncc(C(=O)N[C@H]2CCc3cc(-n4c(-c5cccnc5N)nc5ccc(-n6nccn6)nc54)ccc32)s1 [Compound 492]
33 |  |  | > 1 | > 10 | Nc1ncccc1-c1nc2ccc(-n3cccn3)nc2n1-c1ccc2c(c1)CC[C@@H]2NC(=O)CC1CCC(=O)N1 (stereo partly drawn) [Compound 47, N—((S)-5-(2-(2-aminopyridin-3-yl)-5-(1H-pyrazol-1-yl)-3H-imidazo[4,5-b]pyridin-3-yl)-2,3-dihydro-1H-inden-1-yl)-2-(5-oxopyrrolidin-2-yl)acetamide]
34 |  |  | 0.106 | 1.91 | Nc1ncccc1-c1nc2ccc(-n3cccn3)nc2n1-c1ccc2c(c1)CC[C@@H]2NC(=O)c1cccnc1OC(F)(F)F [Compound 78]
35 | 0.00228 | 0.0844 |  |  | COC1CCN(c2ccn(-c3ccc4nc(-c5cccnc5N)n(-c5ccc6c(c5)CC[C@@H]6NC5CCN(C(=O)C6CC6)CC5)c4n3)n2)CC1 [Compound 564]
36 |  |  | 0.114 | 4.74 | Cc1cccnc1C(=O)N[C@H]1CCc2cc(-n3c(-c4cccnc4N)nc4ccc(-n5cccn5)nc43)ccc21 [Compound 184]
37 | 0.0276 | 2.69 |  |  | COc1cnn(-c2ccc3nc(-c4cccnc4N)n(-c4ccc5c(c4)CC[C@@H]5NC(=O)c4cnc(C(F)F)s4)c3n2)n1 [Compound 594]
38 |  |  | 0.139 | 0.867 | Nc1ncccc1-c1nc2ccc(-n3cccn3)nc2n1-c1ccc2c(c1)CC[C@@H]2n1ccc(=O)cc1 [Compound 83, (S)-1-(5-(2-(2-aminopyridin-3-yl)-5-(1H-pyrazol-1-yl)-3H-imidazo[4,5-b]pyridin-3-yl)-2,3-dihydro-1H-inden-1-yl)pyridin-4(1H)-one]
39 |  |  | 0.0177 | 0.305 | COc1cc(C(=O)N[C@H]2CCc3cc(-n4c(-c5cccnc5N)nc5ccc(-n6cccn6)nc54)ccc32)ccc1F [Compound 336]
40 | 0.0094 | 0.197 |  |  | Nc1ncccc1-c1nc2ccc(-n3cccn3)nc2n1-c1ccc2c(c1)CC[C@@H]2NC1CCc2ccncc21 (single isomer, unassigned) [Example 495, (S*)—N—((S)-5-(2-(2-aminopyridin-3-yl)-5-(1H-pyrazol-1-yl)-3H-imidazo[4,5-b]pyridin-3-yl)-2,3-dihydro-1H-inden-1-yl)-6,7-dihydro-5H-cyclopenta[c]pyridin-7-amine]
41 |  |  | 0.0918 | 1.15 | Cc1nc2ncccc2c(=O)n1[C@H]1CCc2cc(-n3c(-c4cccnc4N)nc4ccc(-n5cccn5)nc43)ccc21 [Compound 180]
42 | 0.0523 | 0.715 |  |  | COc1ncn(-c2ccc3nc(-c4cccnc4N)n(-c4ccc5c(c4)CC[C@@H]5NC(=O)c4ccc(C)nc4)c3n2)n1 [Compound 456, (S)—N-(5-(2-(2-aminopyridin-3-yl)-5-(3-methoxy-1H-1,2,4-triazol-1-yl)-3H-imidazo[4,5-b]pyridin-3-yl)-2,3-dihydro-1H-inden-1-yl)-6-methylnicotinamide]
43 |  |  | 0.0526 | 0.734 | Nc1ncccc1-c1nc2ccc(-n3cccn3)nc2n1-c1ccc2c(c1)CC[C@@H]2NCc1cccnc1 [Compound 141]
44 | 0.336 | 3.1 |  |  | Cc1ccc(C(=O)N[C@H]2CCc3cc(-n4c(-c5cccnc5N)nc5ccc(-n6ncnc6C6CC6)nc54)ccc32)cn1 [Compound 420]
45 |  |  | 0.0377 | 1.01 | CN(C)[C@H]1CCc2cc(-n3c(-c4cccnc4N)nc4ccc(-n5cccn5)nc43)ccc21 [Compound 340]
